# Reference: PubChem BioAssay AID588407 (The Scripps Research Institute Molecular Screening Center, 2011)
# Active and inactive are the calls of the source. The rule behind the calls is not given here.
# Target: Mu-type opioid receptor (Homo sapiens) + Delta-type opioid receptor (Homo sapiens) (UniProt P35372+P41143)
# Experiment: agonists of MOR-DOR heterodimerization, dose response, cell-based, luminescence (AID 588407);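 note: potency of agonists raising the heterodimer signal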
# Settings: cells
# Chain of Mu-type opioid receptor (Homo sapiens) + Delta-type opioid receptor (Homo sapiens) (P35372 whole entry, looked up): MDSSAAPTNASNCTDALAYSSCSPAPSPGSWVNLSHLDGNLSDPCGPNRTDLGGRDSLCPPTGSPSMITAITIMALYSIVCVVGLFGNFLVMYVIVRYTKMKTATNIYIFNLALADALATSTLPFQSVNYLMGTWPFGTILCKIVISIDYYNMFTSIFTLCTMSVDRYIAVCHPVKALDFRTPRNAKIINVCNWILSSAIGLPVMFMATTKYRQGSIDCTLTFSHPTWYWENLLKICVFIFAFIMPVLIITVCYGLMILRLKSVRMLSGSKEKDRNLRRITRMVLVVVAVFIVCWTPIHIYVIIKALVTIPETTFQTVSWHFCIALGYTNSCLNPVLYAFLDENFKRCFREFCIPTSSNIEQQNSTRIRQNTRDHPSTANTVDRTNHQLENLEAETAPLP
# Chain of Mu-type opioid receptor (Homo sapiens) + Delta-type opioid receptor (Homo sapiens) (P41143 whole entry, looked up): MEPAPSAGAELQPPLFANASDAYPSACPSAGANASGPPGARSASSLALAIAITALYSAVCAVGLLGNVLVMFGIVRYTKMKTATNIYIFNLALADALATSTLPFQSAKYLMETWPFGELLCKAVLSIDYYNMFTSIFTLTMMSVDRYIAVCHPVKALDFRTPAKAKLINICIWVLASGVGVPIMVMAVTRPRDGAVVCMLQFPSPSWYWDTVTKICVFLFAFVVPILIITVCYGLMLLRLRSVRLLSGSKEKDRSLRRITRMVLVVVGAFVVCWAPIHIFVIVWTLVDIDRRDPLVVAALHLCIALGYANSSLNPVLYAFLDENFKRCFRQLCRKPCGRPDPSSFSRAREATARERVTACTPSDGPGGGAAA
row,SMILES,EC50
1,CCOC(=O)C1(CC2CCCCO2)CCN(Cc2ccc(OC)cc2F)CC1 (stereo unspecified),inactive
2,COc1ccc(-c2nn(-c3ccccc3C)cc2CNCc2cccnc2)cc1F,7.79 µM
3,Cc1cc(N2CCN(c3ccc([N+](=O)[O-])c4cccnc34)CC2)c2ccccc2n1,> 92.5 µM (inactive)
4,O=C(CSc1ccc(Cl)cc1)Nc1ccc(-c2nc3ccccc3[nH]2)cc1,> 92.5 µM (inactive)
5,Cc1ccc(C2(O)CN(c3ccccc3)C3=[N+]2CCS3)cc1 (stereo unspecified),2.93 µM
6,CCN1CCN(Cc2ccc(NC(=O)c3ccc(C)c(NC(=O)c4c[nH]c5cc(C(F)(F)F)ccc5c4=O)c3)cc2C(F)(F)F)CC1,9.63 µM
7,CCc1ccc2nc(N(CCCN(C)C)C(=O)c3ccc(S(=O)(=O)N4CCc5ccccc5C4)cc3)sc2c1,inactive
8,Cc1cc(/C=C2\SC(=S)N(C)C2=O)c(C)n1-c1ccc(O)cc1,inactive
9,CCC(=O)OC(Cc1ccccc1)(c1ccccc1)[C@H](C)CN(C)C (stereo partly specified),9.98 µM
10,CN(C)C(CNC(=S)Nc1ccccc1Cl)c1cccnc1 (stereo unspecified),0.524 µM
11,CN(C)C(CNC(=O)c1cc2ccccc2o1)c1ccco1 (stereo unspecified),> 92.5 µM (inactive)
12,CCOc1ccc(Nc2c3ccccc3nc3ccccc23)cc1,inactive
13,CCCC(=O)NC(C)C(c1cccs1)N1CCN(c2ccccc2)CC1 (stereo unspecified),inactive
14,CN1C2C=C(N(CCc3ccccc3)C(=O)c3ccc(Cl)cc3)CC1CC2 (stereo unspecified),inactive
15,CCOC(=O)c1c(C)[nH]c(C(=O)OC/C(O)=C(\C#N)c2nc3ccccc3[nH]2)c1C,> 92.5 µM (inactive)
16,CCOC(=O)C1(Cc2ccccc2)CCN(Cc2cccn2-c2nccs2)CC1,inactive
17,CCC(=O)OC1(c2cccc(C)c2)CC(C)N(C)CC1C (stereo unspecified),inactive
18,Cc1ccc(Cl)cc1NC(=O)CNCC(c1ccccc1)N(C)C (stereo unspecified),9.86 µM
19,COc1ccc2[nH]c3c(=O)n(/N=C/[C@H]4C(C)C=C(C)CC4C)c(=O)[nH]c3c2c1 (stereo partly specified),> 92.5 µM (inactive)
20,COc1ccc(C(C(=O)NC2CCCCC2)N(C(=O)Cc2c[nH]c3ccccc23)c2ccc(NC(C)=O)cc2)cc1OC (stereo unspecified),> 92.5 µM (inactive)
21,O=S(=O)(NC1CC1)c1ccc(S(=O)(=O)N2CCCC3(CCCCC3)C2)cc1,inactive
22,O=C(N[C@H]1C/C=C\C[C@H](CC(=O)N(CCO)Cc2ccccc2)C(=O)N[C@H](Cc2c[nH]c3ccccc23)COC1=O)OCC1c2ccccc2-c2ccccc21,inactive
23,COc1ccc(C(CNC(=O)CCOc2ccccc2)N(C)C)cc1 (stereo unspecified),inactive
24,COc1ccc(C2C(C#N)=C(N)N(c3sc4c(c3C#N)CCCC4)C3=C2C(=O)CC(C)(C)C3)cc1 (stereo unspecified),4.6 µM
25,CN(C)CCCN(C(=O)c1ccc(S(=O)(=O)N2CCc3ccccc3C2)cc1)c1nc2ccc(F)cc2s1,1.27 µM
26,Cc1ccc2nc(N(CCCN(C)C)C(=O)c3ccc(S(=O)(=O)N4CCc5ccccc5C4)cc3)sc2c1,8.9 µM
